Patent US11691974B2, “3,9-diazaspiro[5,5]undecane compound as FLT3 and AXL inhibitors” (MEDSHINE DISCOVERY INC., priority 2018, dated 2023)
pIC50: −log10 of the molar value.

How the values were obtained:
MV-4-11 cells = assay: Assay of inhibiting proliferation of MV-4-11 in vitro (CellTiter-Glo); assay type: cell-based; details: Homo sapiens, MV4-11, 72 h, 3 days
Protocol: IMDM medium, fetal bovine serum, and penicillin/streptomycin antibiotics were purchased from Promega (Madison, Wis.). The MV-4-11 cell line was purchased from the Cell Bank of the Chinese Academy of Sciences. Envision Multi-Label Analyzer (PerkinElmer).
MV-4-11 cells were seeded in a white 96-well plate with 80 μL of cell suspension per well containing 10,000 MV-4-11 cells. The cell plate was cultured overnight in a carbon dioxide incubator.
The compounds to be tested were 5-fold serially diluted with a pipette to obtain eight concentrations, i.e., from 2 mmol/L to 26 nmol/L. The assay was carried out in duplicate. 78 μL of medium was added to the intermediate plate, and then 2 μL per well of the serially diluted compounds were transferred to the intermediate plate according to the corresponding position. After mixing, an amount of 20 μL per well was transferred to the cell plate. The cell plate was cultured in a carbon dioxide incubator for 3 days.
25 μL per well of Promega CellTiter-Glo reagent was added to the cell plate and incubated at room temperature for 10 minutes to stabilize the luminescence signal. A PerkinElmer Envision multi-label analyzer was used for reading.
The original data was converted into an inhibition rate, and the IC50 value can be obtained by four-parameter curve fitting.

[1] = system: human biphenotypic B bone marrow mononuclear leukemia cell MV4-11 subcutaneous xenograft tumor; assay: Inhibition of MV4-11 subcutaneous xenograft tumor in vivo; parameters: species or system nude mice; details: for Average tumor volume Day 25 / Average tumor volume Day 35: then drug withdrawal; for Average tumor volume Day 0: baseline at start of dosing
Protocol: In this assay, the anti-tumor effect of the compounds was evaluated using a nude mice model of subcutaneous xenograft tumor of human biphenotypic B bone marrow mononuclear leukemia cell MV4-11.
Human biphenotypic B bone marrow mononuclear leukemia cell MV4-11 was cultured in vitro in suspension with a RPMI1640 medium supplemented with 10% fetal bovine serum, 100 U/mL penicillin and 100 μg/mL streptomycin in a 5% CO2 cell incubator at 37° C. Routine passaging was performed twice a week. Cells in the logarithmic growth phase were collected, counted and then used for inoculation.
10×10^6 MV4-11 cells were inoculated subcutaneously on the back of the right neck of each mouse, wherein the inoculation volume was 0.2 mL, and the cell suspension was PBS plus matrigel (volume ratio 1:1). The assay of efficacy in vivo was performed on the 13th day after the cell inoculation, at which time the average tumor volume reached 181 mm^3. The mice were randomly divided into groups with 6 mice in each group, and administration to the mice started.
The diameter of the tumor was measured with vernier calipers twice a week. The formula for calculating the tumor volume is: V=0.5a×b^2, where a and b represent the long and short diameters of the tumor, respectively.
After 14 days of administration, the administration was stopped, and the rebound of the tumor was observed.

[2] = system: human acute myeloma MOLM-13 cell line subcutaneous xenograft; assay: Inhibition of Molm-13 subcutaneous xenograft tumor in vivo; parameters: species or system NOD/SCID female mice; details: for Average tumor volume Day 0: baseline
Protocol: The purpose of this assay is to evaluate the pharmacodynamics of the compounds in the NOD/SCID female mice model of human acute myeloma MOLM-13 cell line subcutaneous xenograft.
MOLM-13 cells were cultured in RPMI-1640 medium containing 10% fetal bovine serum. The MOLM-13 cells were collected in the exponential growth phase, and resuspended in PBS to a suitable concentration for subcutaneous tumor inoculation in nude mice.
The assay mice were inoculated with 5×10^6 MOLM-13 cells resuspended in 0.1 ml of PBS (0.1 ml per mouse) subcutaneously on the right back. Tumor growth was regularly observed. When the tumor grew to an average volume of 98 mm^3, the mice were randomly divided into groups and administered according to tumor size and body weight of the mice.
After the start of administration, the body weight and tumor size of the mice were measured three times a week. The formula for calculating the tumor volume is: tumor volume (mm^3)=½×(a×b^2) (where a represents the long diameter and b represents the short diameter).

[3] = 20 mg/kg oral once a day for 14 days
[4] = 5 mg/kg oral once a day for 14 days

Structure (SMILES)	pIC50 (MV-4-11 cells)	% Inhibition rate on day 14 ([1]; 20 mg/kg oral once a day)	Average tumor volume Day 14 ([1]; 20 mg/kg oral once a day)	Average tumor volume Day 25 [1, 3]	Average tumor volume Day 35 [1, 3]	Average tumor volume Day 0 ([1]; 20 mg/kg oral once a day group)	% Inhibition rate on day 14 ([1]; 5 mg/kg oral once a day)	Average tumor volume Day 14 ([1]; 5 mg/kg oral once a day)	Average tumor volume Day 25 [1, 4]	Average tumor volume Day 35 [1, 4]	Average tumor volume Day 0 ([1]; 5 mg/kg oral once a day group)	Average tumor volume Day 11 ([2]; 15 mg/kg oral once a day)	Average tumor volume Day 15 ([2]; 15 mg/kg oral once a day)	Average tumor volume Day 11 ([2]; 50 mg/kg oral once a day)	Average tumor volume Day 15 ([2]; 50 mg/kg oral once a day)	Average tumor volume Day 0 ([2]; 15 mg/kg oral once a day group)	Average tumor volume Day 0 ([2]; 50 mg/kg oral once a day group)
CCc1nc(C(N)=O)c(Nc2ccc(N3CCC4(CCN(C)CC4)CC3)c(OC)c2)nc1NC1CCOCC1 [Compound A]	8.27	118%	39 cubic millimeter	258 cubic millimeter	988 cubic millimeter	181 cubic millimeter	–	–	–	–	–	–	–	–	–	–	–
CCc1nc(C(N)=O)c(Nc2ccc(N3CCC(N4CCN(C)CC4)CC3)c(OC)c2)nc1NC1CCOCC1 [Compound B]	8.33	–	–	–	–	–	118%	41 cubic millimeter	320 cubic millimeter	1279 cubic millimeter	181 cubic millimeter	–	–	–	–	–	–
CCc1nc(C(N)=O)c(Nc2ccc(N3CCC4(CCN(C)CC4)CC3)c(C)c2)nc1NC1CCOCC1 [Compound of formula (I)]	–	–	–	–	–	–	–	–	–	–	–	156.85 cubic millimeter	223.09 cubic millimeter	53.08 cubic millimeter	0 cubic millimeter	98.34 cubic millimeter	98.05 cubic millimeter
